In the NIST ThermoML archive (doi:10.1021/je060271a):
Several values for one entry are separate records, joined by “and”; a condition that tells them apart may be missing. Equal values may be shown once. Numbers after ± are expanded uncertainties.

Details: 283.15 K, Liquid, Vibrating tube method

CCCCCC(=O)OCC(COC(=O)CCCCC)(COC(=O)CCCCC)COC(=O)CCCCC [pentaerythritol tetrahexanoate]
Details	mass density
147.5 kPa	1004.2 ± 1.2 kg/m3
147.8 kPa	1004.2 ± 1.2 kg/m3
148.2 kPa	1004.2 ± 1.2 kg/m3
148.7 kPa	1004.3 ± 1.2 kg/m3
150.5 kPa	1004.1 ± 1.2 kg/m3
150.8 kPa	1004.2 ± 1.2 kg/m3
151.3 kPa	1004.3 ± 1.2 kg/m3
151.5 kPa	1004.3 ± 1.2 kg/m3
151.7 kPa	1004.3 ± 1.2 kg/m3
152.4 kPa	1004.2 ± 1.2 kg/m3
152.7 kPa	1004.2 ± 1.2 kg/m3
153.2 kPa	1004.2 ± 1.2 kg/m3
153.4 kPa	1004.2 ± 1.2 kg/m3
153.7 kPa	1004.4 ± 1.2 kg/m3
154.1 kPa	1004.3 ± 1.2 kg/m3
154.3 kPa	1004.2 ± 1.2 kg/m3
154.6 kPa	1004.1 ± 1.2 kg/m3 and 1004.2 ± 1.2 kg/m3
155.1 kPa	1004.3 ± 1.2 kg/m3
155.7 kPa	1004.2 ± 1.2 kg/m3
156.4 kPa	1004.2 ± 1.2 kg/m3
156.5 kPa	1004.1 ± 1.2 kg/m3 and 1004.2 ± 1.2 kg/m3
157.2 kPa	1004.3 ± 1.2 kg/m3
157.6 kPa	1004.2 ± 1.2 kg/m3
157.7 kPa	1004.2 ± 1.2 kg/m3
157.9 kPa	1004.3 ± 1.2 kg/m3
160.5 kPa	1004.2 ± 1.2 kg/m3
161 kPa	1004.2 ± 1.2 kg/m3
161.4 kPa	1004.2 ± 1.2 kg/m3
161.6 kPa	1004.3 ± 1.2 kg/m3
162.3 kPa	1004.3 ± 1.2 kg/m3
162.4 kPa	1004.1 ± 1.2 kg/m3
163 kPa	1004.2 ± 1.2 kg/m3
163.1 kPa	1004.3 ± 1.2 kg/m3
163.8 kPa	1004.3 ± 1.2 kg/m3
164.2 kPa	1004.3 ± 1.2 kg/m3
164.5 kPa	1004.2 ± 1.2 kg/m3
164.7 kPa	1004.3 ± 1.2 kg/m3
165.2 kPa	1004.2 ± 1.2 kg/m3
165.7 kPa	1004.3 ± 1.2 kg/m3
166.4 kPa	1004.1 ± 1.2 kg/m3
166.8 kPa	1004.3 ± 1.2 kg/m3
166.9 kPa	1004.3 ± 1.2 kg/m3
167.5 kPa	1004.2 ± 1.2 kg/m3
168.2 kPa	1004.2 ± 1.2 kg/m3
169.7 kPa	1004.2 ± 1.2 kg/m3
173.5 kPa	1004.2 ± 1.2 kg/m3
174.1 kPa	1004.2 ± 1.2 kg/m3
174.8 kPa	1004.1 ± 1.2 kg/m3
175.1 kPa	1004.3 ± 1.2 kg/m3
175.4 kPa	1004.2 ± 1.2 kg/m3
177 kPa	1004.2 ± 1.2 kg/m3
177.9 kPa	1004.2 ± 1.2 kg/m3
178 kPa	1004.2 ± 1.2 kg/m3
178.4 kPa	1004.1 ± 1.2 kg/m3
178.9 kPa	1004.2 ± 1.2 kg/m3
179.4 kPa	1004.2 ± 1.2 kg/m3
179.6 kPa	1004.2 ± 1.2 kg/m3
179.8 kPa	1004.2 ± 1.2 kg/m3
180.3 kPa	1004.3 ± 1.2 kg/m3
181 kPa	1004.2 ± 1.2 kg/m3
181.4 kPa	1004.2 ± 1.2 kg/m3
181.9 kPa	1004.3 ± 1.2 kg/m3
182.2 kPa	1004.2 ± 1.2 kg/m3
182.9 kPa	1004.3 ± 1.2 kg/m3
184.1 kPa	1004.3 ± 1.2 kg/m3
185 kPa	1004.3 ± 1.2 kg/m3
185.3 kPa	1004.2 ± 1.2 kg/m3
185.7 kPa	1004.2 ± 1.2 kg/m3
186 kPa	1004.3 ± 1.2 kg/m3
186.4 kPa	1004.2 ± 1.2 kg/m3
187.1 kPa	1004.2 ± 1.2 kg/m3
187.6 kPa	1004.3 ± 1.2 kg/m3
188.3 kPa	1004.3 ± 1.2 kg/m3
188.6 kPa	1004.2 ± 1.2 kg/m3
188.8 kPa	1004.1 ± 1.2 kg/m3
189.2 kPa	1004.2 ± 1.2 kg/m3
189.5 kPa	1004.3 ± 1.2 kg/m3
189.9 kPa	1004.3 ± 1.2 kg/m3
190.2 kPa	1004.1 ± 1.2 kg/m3
190.5 kPa	1004.3 ± 1.2 kg/m3
190.7 kPa	1004.2 ± 1.2 kg/m3
191.4 kPa	1004.2 ± 1.2 kg/m3
191.9 kPa	1004.3 ± 1.2 kg/m3
192.3 kPa	1004.3 ± 1.2 kg/m3 and 1004.2 ± 1.2 kg/m3
192.6 kPa	1004.4 ± 1.2 kg/m3
192.8 kPa	1004.2 ± 1.2 kg/m3
193.1 kPa	1004.2 ± 1.2 kg/m3
193.3 kPa	1004.2 ± 1.2 kg/m3
193.8 kPa	1004.2 ± 1.2 kg/m3
194.4 kPa	1004.2 ± 1.2 kg/m3
194.7 kPa	1004.3 ± 1.2 kg/m3
195.1 kPa	1004.3 ± 1.2 kg/m3
195.2 kPa	1004.2 ± 1.2 kg/m3
195.8 kPa	1004.2 ± 1.2 kg/m3
195.9 kPa	1004.2 ± 1.2 kg/m3
196.3 kPa	1004.3 ± 1.2 kg/m3
196.8 kPa	1004.3 ± 1.2 kg/m3
197.1 kPa	1004.2 ± 1.2 kg/m3
197.3 kPa	1004.2 ± 1.2 kg/m3
197.5 kPa	1004.1 ± 1.2 kg/m3
197.8 kPa	1004.3 ± 1.2 kg/m3
198.2 kPa	1004.2 ± 1.2 kg/m3
198.7 kPa	1004.3 ± 1.2 kg/m3
198.9 kPa	1004.3 ± 1.2 kg/m3
199.2 kPa	1004.2 ± 1.2 kg/m3
199.6 kPa	1004.4 ± 1.2 kg/m3
200.3 kPa	1004.3 ± 1.2 kg/m3
200.8 kPa	1004.1 ± 1.2 kg/m3 and 1004.3 ± 1.2 kg/m3
201 kPa	1004.2 ± 1.2 kg/m3
201.5 kPa	1004.1 ± 1.2 kg/m3
202 kPa	1004.3 ± 1.2 kg/m3
202.2 kPa	1004.4 ± 1.2 kg/m3
202.5 kPa	1004.2 ± 1.2 kg/m3
202.7 kPa	1004.1 ± 1.2 kg/m3
203.2 kPa	1004.3 ± 1.2 kg/m3
204.1 kPa	1004.1 ± 1.2 kg/m3
204.3 kPa	1004.2 ± 1.2 kg/m3
204.6 kPa	1004.2 ± 1.2 kg/m3
205.1 kPa	1004.2 ± 1.2 kg/m3
205.7 kPa	1004.2 ± 1.2 kg/m3
205.8 kPa	1004.2 ± 1.2 kg/m3
206.5 kPa	1004.3 ± 1.2 kg/m3 and 1004.2 ± 1.2 kg/m3
207 kPa	1004.1 ± 1.2 kg/m3
208.6 kPa	1004.2 ± 1.2 kg/m3
208.8 kPa	1004.3 ± 1.2 kg/m3
209.3 kPa	1004.2 ± 1.2 kg/m3
209.6 kPa	1004.2 ± 1.2 kg/m3
210 kPa	1004.2 ± 1.2 kg/m3
210.5 kPa	1004.3 ± 1.3 kg/m3
211 kPa	1004.2 ± 1.2 kg/m3
211.6 kPa	1004.3 ± 1.2 kg/m3
212.1 kPa	1004.2 ± 1.2 kg/m3
212.4 kPa	1004.3 ± 1.2 kg/m3
212.8 kPa	1004.3 ± 1.2 kg/m3
212.9 kPa	1004.2 ± 1.2 kg/m3
213.5 kPa	1004.3 ± 1.2 kg/m3
213.8 kPa	1004.2 ± 1.2 kg/m3
214.5 kPa	1004.3 ± 1.2 kg/m3
215.2 kPa	1004.3 ± 1.2 kg/m3
215.7 kPa	1004.2 ± 1.2 kg/m3
216.2 kPa	1004.3 ± 1.2 kg/m3
216.8 kPa	1004.2 ± 1.2 kg/m3
217.5 kPa	1004.2 ± 1.2 kg/m3
219 kPa	1004.1 ± 1.2 kg/m3
219.4 kPa	1004.3 ± 1.2 kg/m3
